{"source": "patent US12162918B2", "about": "“Periostin compounds for the treatment of haematological complications” (Chemotherapeutisches Forschungsinstitut Georg-Speyer-Haus, priority 2018, dated 2024)", "key": {"periostin knockout mice": {"test_system": "periostin knockout mice", "assay": "Warfarin treatment of periostin knockout mice", "format": "in vivo", "source_text": "7 to 10 week old C57BL6/N (CD45.2) or SJL (CD45.1; B6.SJL-Ptprca Pepcb/BoyJ), Col1a1 2.3 kb-GFP (kind gift from D. Rowe), Nestin-GFP (Mignone et al., 2004) and periostin knockout mice (kind gift from Juerg Huelsken) were used for these experiments. NOD SCID interleukin (IL)-2 receptor γ deficient (NSG) mice were purchased from Charles River Laboratories (Sulzfeld, Germany) and bred in our facility. All animal studies were approved by the local German government (Regierungspräsidium Darmstadt) in Hessen, Germany, and by the Institutional Animal Care and Use Committee (IACUC) of Boston University.\n(§1) 0.5 mg/kg/d or 0.05 mg/kg/d of warfarin, resuspended in phosphate-buffered saline was administered to mice via subcutaneously implanted osmotic minipumps (ALZET minipumps, Cupertino, CA). The osmotic minipumps were changed after 14 days (if the experiment went beyond 14 days of treatment). Sham operated (skin incision and suture) mice served as controls. Warfarin treatment continued for 10-14 days. In the xenotransplantation experiments the mice were treated with warfarin via the drinking water (or normal drinking water) at a dose of 0.72 mg/100 ml for a total of 3 days a week (Pfeilschifter et al., 2011).\n5-fluorouracil was intraperitoneally injected every week at a dose of 75 mg/kg for a total of 4 doses or as a one time dose of 200 mg/kg. […]"}, "Lin− bone marrow cells": {"test_system": "Lin− bone marrow cells", "assay": "Culture of Lin− bone marrow cells in conditioned medium from stroma cells", "format": "cell-based, mice", "settings": "conditioned medium from warfarin-treated stroma cells", "method": "Conditioned medium was harvested from stroma from 5 mice grown in the above medium containing vehicle or warfarin for 7 days. Consequently, 100,000 Lin− cells were grown for 2-3 days in the conditioned medium and analyzed for cell counts by flow cytometry. Where indicated, the conditioned medium was concentrated using Microsep Advance Centrifugal Devices 30K Omega (Pall Life Sciences, Portsmouth, UK)."}, "Lin− cells": {"test_system": "Lin− cells", "assay": "Plating of warfarin-exposed Lin− cells on untreated versus warfarin-treated stroma, with or without MK-2206", "format": "cell-based, mice"}, "Actin DsRed+ Lin− cells": {"test_system": "Actin DsRed+ Lin− cells", "assay": "Intrafemoral cotransplantation of treated murine stroma cells with untreated Lin− cells", "format": "in vivo, mice", "settings": "cotransplanted with warfarin- vs vehicle-treated stroma", "method": "For the intrafemoral co-transplantation experiments 0.8×10^5 human CD34+ cells or 1×10^5 Lin− cells from Actin-DsRed reporter mice were mixed with 5×10^5 human or murine stroma cells which had been expanded in vitro and pretreated with vehicle or 2 μM warfarin for 14 days. The human stromal cells had been obtained via flushing of discarded bones from the orthopedic operating room, as approved of by the local ethics committee."}, "Lin− hematopoietic cells": {"test_system": "Lin− hematopoietic cells", "assay": "Direct effect of warfarin on Lin− hematopoietic cells in vitro", "format": "cell-based, mice", "method": "Concentrations of drugs for in vitro use were 2 μM for warfarin, 2 μg/ml for periostin, 5 μM for the AKT inhibitor MK-2206 (Selleck Chemicals, Houston, TX) and cilengitide (Selleck Chemicals, Houston, TX, Cat. No. #S7077) was used at 0.05 μM. Phosphate buffered saline served as the vehicle control.\nTo test the direct effect of warfarin on hematopoietic cells 100,000 Lin− cells were cultured in 2 μM vehicle or warfarin in the absence of stroma cells for a total of 7 days. For the in vitro rescue experiment with periostin stroma cells were grown in warfarin for 14 days, before vehicle or periostin were added."}, "LKS and LKS SLAM cells": {"test_system": "LKS and LKS SLAM cells", "assay": "G-CSF-mediated mobilization", "format": "in vivo", "settings": "warfarin-treated mice", "method": "In the mobilization experiments vehicle- or warfarin-treated C57/B16 mice were treated with 200 μg/kg G-CSF daily for 4 days, sacrificed on day 5 and peripheral blood analyzed for LKS and LKS SLAM cells by flow cytometry."}, "human CD34+ cells": {"test_system": "human CD34+ cells", "assay": "Xenotransplantation of human CD34+ cells into warfarin-treated NSG mice", "format": "in vivo", "settings": "warfarin- vs vehicle-treated NSG mice, 6 weeks after transplantation, P=0.015", "method": "as §1\nFor the xenotransplantation experiments, we intravenously injected 1.3×10^5 human CD34+ cells, obtained via magnetic separation by magnetic beads (Miltenyi Biotech, Bergisch Gladbach, Germany) from BM filters used after harvest of non-mobilized HSPC from healthy allogeneic donors, into irradiated (250 cGy) NSG mice, which had previously been treated with vehicle or warfarin for 14 days.\nWe assessed the complete blood count of vehicle or warfarin-treated mice using a complete blood count analyzer (Scil Vet ABC, Gurnee, IL). […] Engraftment of human cells in NSG mice was assessed using anti-human CD45 (BD Biosciences, San José, CA)."}, "wildtype mice": {"test_system": "wildtype mice", "assay": "Measurement of the INR of warfarin-treated mice", "format": "in vivo", "settings": "only at 0.5 mg/kg, vs sham-operated control mice, P=0.009", "method": "as §1\nA Coaguchek XS (Roche Diagnostics, Mannheim, Germany) and Coaguchek XS PT test strips were used to determine the INR of vehicle- and warfarin-treated mice."}}}
{"smiles": "CC(=O)CC(c1ccccc1)c1c(O)c2ccccc2oc1=O", "note": "(stereo not shown) [warfarin]", "values": [{"measurement": "leukocyte counts or survival in periostin knockout mice after 5-fluorouracil", "setting": "periostin knockout mice; repetitive doses of 75 mg/kg 5-fluorouracil", "value": "did not lead to lower leukocyte counts or decreased survival"}, {"measurement": "total leukocytes or monocytes in periostin knockout mice", "setting": "periostin knockout mice; vs control periostin knockout mice", "value": "did not lead to a decrease"}, {"measurement": "Lin− cell fraction", "setting": "Lin− bone marrow cells; P=0.0001", "value": "decrease"}, {"measurement": "total number of hematopoietic cells", "setting": "Lin− bone marrow cells; P=0.0009", "value": "decrease"}, {"measurement": "myeloid cell fraction", "setting": "Lin− bone marrow cells; P=0.001", "value": "decrease"}, {"measurement": "number of pAKT+ Lin− cells", "setting": "Lin− cells; previously warfarin-exposed Lin− cells on untreated stroma, P=0.02", "value": "increased"}, {"measurement": "number of hematopoietic cells", "setting": "Lin− cells; warfarin-treated Lin− cells on untreated compared to warfarin-treated stroma, P=0.009", "value": "increased number"}, {"measurement": "percentage of Lin− cells in the S/G2/M phases", "setting": "Lin− cells; warfarin-treated Lin− cells on untreated compared to warfarin-treated stroma, P=0.02", "value": "increase"}, {"measurement": "engraftment of donor-derived myeloid cells", "setting": "Actin DsRed+ Lin− cells; P=0.023", "value": "decreased engraftment"}, {"measurement": "engraftment of total donor bone marrow", "setting": "Actin DsRed+ Lin− cells; P=0.025", "value": "decreased engraftment"}, {"measurement": "number of colonies from Lin− cells previously exposed in vitro", "setting": "Lin− hematopoietic cells; 2 μM warfarin or vehicle for 7 days, scored day 10", "value": "did not yield significantly different numbers of colonies"}, {"measurement": "effect on phenotypical Lin− or LKS cells, annexin V+ dead cells, cycling or myeloid cells", "setting": "Lin− hematopoietic cells; Lin− cells cultured in warfarin-containing media", "value": "no direct effect"}, {"measurement": "G-CSF-mediated mobilization of LKS SLAM cells into peripheral blood", "setting": "LKS and LKS SLAM cells; P=0.026", "value": "impaired"}, {"measurement": "G-CSF-mediated mobilization of LKS cells into peripheral blood", "setting": "LKS and LKS SLAM cells; P=0.042", "value": "impaired"}, {"measurement": "engraftment of human CD45+ leukocytes", "setting": "human CD34+ cells", "value": "reduced engraftment"}, {"measurement": "international normalized ratio (INR)", "setting": "wildtype mice", "value": "modest, but significant increase"}]}
